Data published in patent US12312419B2, “Hemiasterlin derivative having cysteine residue” (priority 2019, dated 2025).

Test system: Karpas-299 cells
Assay: Cellular toxicity test (1), CellTiter-Glo cell viability
Format: cell-based, human
Details: for IC50: Homo sapiens, 96 h, Karpas-299, cultured 4 days, cell viability
Experimental: Karpas-299 cells (European Collection of Authenticated Cell Cultures, hereinafter, ECACC), which are human lymphoma cell lines, were cultured in RPMI 1640 (GIBCO) containing 10% fetal bovine serum (MP Biomedicals) (hereinafter, referred to as the “culture medium”). Cells were prepared to be 2×10^5 cells/mL in the culture medium, and were added to a 96 well microplate for cell culturing in an amount of 50 μL for each well. Compounds of Examples or the Comparative Example compound 4 times diluted with the culture medium in 8 stages were added to the microplate in an amount of 50 μL for each well. These were cultured at 37° C. under 5% CO2 for 4 days. After culturing, the microplate was taken out from the incubator, and was left at rest at room temperature for 10 minutes. To each well, 50 μL of CellTiter-Glo Luminescent Cell Viability Assay (Promega) was added, and the resultant mixture was stirred. This mixture was incubated at a dark place for 20 minutes. Using a microplate luminometer, luminescence at each well was measured, thereby calculating the cell viability. From the value of the cell viability, the IC50 value was calculated.
The IC50 value was calculated by the following formula: IC50(nM)=antilog(LOG10(a/b)×(e−d)/(c−d)+LOG10b) • a: concentration a of test substance • b: concentration b of test substance • c: cell viability upon adding test substance with concentration a • d: cell viability upon adding test substance with concentration b • e: intermediate value between maximum and minimum among cell viabilities upon adding test substances with different concentrations (a and b are concentrations crossing the cell viability e, and a>b is indicated).
The cell viability at each concentration was calculated by the following formula: Cell Viability (%)=a′/b′×100 • a′: mean value of luminescence amount of wells to which test substance was added (n=6) • b′: mean value of luminescence amount of wells to which test substance was not added (n=6) • (n represents the number of evaluations performed per test substance concentration).

| SMILES | cellular toxicity to Karpas-299 cells (in words, summary of Table 17) | IC50 [nM] |
| --- | --- | --- |
| CN[C@H](C(=O)N[C@H](C(=O)N(C)[C@H](/C=C(\C)C(=O)NCCCCNC(=O)CCCCCN1C(=O)CC(SC[C@H](N)C(=O)O)C1=O)C(C)C)C(C)(C)C)C(C)(C)c1cn(C)c2ccccc12 (stereo partly shown) [Comparative Example compound, reference compound] | strong cellular toxicity |  |
| CN[C@H](C(=O)N[C@H](C(=O)N(C)[C@H](/C=C(\C)C(=O)N[C@H](CCC(=O)N[C@@H](CCCCNC(=O)CCCCCN1C(=O)CC(SC[C@H](N)C(=O)O)C1=O)C(=O)O)C(=O)O)C(C)C)C(C)(C)C)C(C)(C)c1cn(C)c2ccccc12 (stereo partly shown) [Example MM2] |  | 459 |
| CN[C@H](C(=O)N[C@H](C(=O)N(C)[C@H](/C=C(\C)C(=O)N[C@H](CCC(=O)N[C@H](CCC(=O)NCCN1C(=O)CC(SC[C@H](N)C(=O)O)C1=O)C(=O)O)C(=O)O)C(C)C)C(C)(C)C)C(C)(C)c1cn(C)c2ccccc12 (stereo partly shown) [Example MM3] |  | 387 |
| CN[C@H](C(=O)N[C@H](C(=O)N(C)[C@H](/C=C(\C)C(=O)N[C@H](CCC(=O)NCCN1C(=O)CC(SC[C@H](N)C(=O)O)C1=O)C(=O)O)C(C)C)C(C)(C)C)C(C)(C)c1cn(C)c2ccccc12 (stereo partly shown) [Example MM4] |  | 289 |
| CN[C@H](C(=O)N[C@H](C(=O)N(C)[C@H](/C=C(\C)C(=O)NCCCC[C@@H](NC(=O)CCCN1C(=O)CC(SC[C@H](N)C(=O)O)C1=O)C(=O)O)C(C)C)C(C)(C)C)C(C)(C)c1cn(C)c2ccccc12 (stereo partly shown) [Example MM5] |  | > 1000 |
| CN[C@H](C(=O)N[C@H](C(=O)N(C)[C@H](/C=C(\C)C(=O)N[C@H](CCC(=O)N[C@H](CCC(=O)NCCN1C(=O)CC(SC[C@H](N)C(=O)O)C1=O)C(=O)O)C(=O)O)C(C)C)C(C)(C)C)C(C)(C)c1ccccc1 (stereo partly shown) [Example MM6] |  | > 1000 |
| CN[C@H](C(=O)N[C@H](C(=O)N(C)[C@H](/C=C(\C)C(=O)N[C@H](CCC(=O)N[C@H](CCC(=O)N[C@H](CCC(=O)NCCN1C(=O)CC(SC[C@H](N)C(=O)O)C1=O)C(=O)O)C(=O)O)C(=O)O)C(C)C)C(C)(C)C)C(C)(C)c1ccccc1 (stereo partly shown) [Example MM7] |  | > 1000 |
| CN[C@H](C(=O)N[C@H](C(=O)N(C)[C@H](/C=C(\C)C(=O)N[C@H](CC(=O)NCCN1C(=O)CC(SC[C@H](N)C(=O)O)C1=O)C(=O)O)C(C)C)C(C)(C)C)C(C)(C)c1ccccc1 (stereo partly shown) [Example MM9] |  | > 1000 |
| CN[C@H](C(=O)N[C@H](C(=O)N(C)[C@H](/C=C(\C)C(=O)N[C@@H](CC(=O)NCCN1C(=O)CC(SC[C@H](N)C(=O)O)C1=O)C(=O)O)C(C)C)C(C)(C)C)C(C)(C)c1ccccc1 (stereo partly shown) [Example MM10] |  | > 1000 |
| CN[C@H](C(=O)N[C@H](C(=O)N(C)[C@H](/C=C(\C)C(=O)N[C@H](CC(=O)O)C(=O)NCCN1C(=O)CC(SC[C@H](N)C(=O)O)C1=O)C(C)C)C(C)(C)C)C(C)(C)c1ccccc1 (stereo partly shown) [Example MM13] |  | > 1000 |
| CN[C@H](C(=O)N[C@H](C(=O)N(C)[C@H](/C=C(\C)C(=O)N[C@@H](CC(=O)O)C(=O)NCCN1C(=O)CC(SC[C@H](N)C(=O)O)C1=O)C(C)C)C(C)(C)C)C(C)(C)c1ccccc1 (stereo partly shown) [Example MM14] |  | > 1000 |
| CN[C@H](C(=O)N[C@H](C(=O)N(C)[C@H](/C=C(\C)C(=O)N[C@H](CCC(=O)NCCCN1C(=O)CC(SC[C@H](N)C(=O)O)C1=O)C(=O)O)C(C)C)C(C)(C)C)C(C)(C)c1ccccc1 (stereo partly shown) [Example MM16] |  | 867 |
| CN[C@H](C(=O)N[C@H](C(=O)N(C)[C@H](/C=C(\C)C(=O)N[C@@H](CC(=O)NCCN1C(=O)CC(SC[C@H](N)C(=O)O)C1=O)C(=O)O)C(C)C)C(C)(C)C)C(C)(C)c1cn(C)c2ccccc12 (stereo partly shown) [Example MM19] |  | 303 |
| CN[C@H](C(=O)N[C@H](C(=O)N(C)[C@H](/C=C(\C)C(=O)N[C@H](CC(=O)NCCN1C(=O)CC(SC[C@H](N)C(=O)O)C1=O)C(=O)O)C(C)C)C(C)(C)C)C(C)(C)c1cn(C)c2ccccc12 (stereo partly shown) [Example MM20] |  | 337 |
| CN[C@H](C(=O)N[C@H](C(=O)N(C)[C@H](/C=C(\C)C(=O)N[C@@H](CC(=O)O)C(=O)NCCN1C(=O)CC(SC[C@H](N)C(=O)O)C1=O)C(C)C)C(C)(C)C)C(C)(C)c1cn(C)c2ccccc12 (stereo partly shown) [Example MM21] |  | 471 |
| CN[C@H](C(=O)N[C@H](C(=O)N(C)[C@H](/C=C(\C)C(=O)N[C@@H](CCC(=O)O)C(=O)NCCN1C(=O)CC(SC[C@H](N)C(=O)O)C1=O)C(C)C)C(C)(C)C)C(C)(C)c1cn(C)c2ccccc12 (stereo partly shown) [Example MM22] |  | 740 |

| SMILES | cellular toxicity to Karpas-299 cells (in words, summary of Table 17) | IC50 [nM] |
| --- | --- | --- |
| CN[C@H](C(=O)N[C@H](C(=O)N(C)[C@H](/C=C(\C)C(=O)N[C@H](CC(=O)O)C(=O)NCCN1C(=O)CC(SC[C@H](N)C(=O)O)C1=O)C(C)C)C(C)(C)C)C(C)(C)c1cn(C)c2ccccc12 (stereo partly shown) [Example MM24] |  | 521 |
| CN[C@H](C(=O)N[C@H](C(=O)N(C)[C@H](/C=C(\C)C(=O)N[C@H](CCC(=O)O)C(=O)NCCN1C(=O)CC(SC[C@H](N)C(=O)O)C1=O)C(C)C)C(C)(C)C)C(C)(C)c1cn(C)c2ccccc12 (stereo partly shown) [Example MM25] |  | 555 |
| CN[C@H](C(=O)N[C@H](C(=O)N(C)[C@H](/C=C(\C)C(=O)N[C@H](CCC(=O)N[C@@H](CCCCNC(=O)CCN1C(=O)CC(SC[C@H](N)C(=O)O)C1=O)C(=O)O)C(=O)O)C(C)C)C(C)(C)C)C(C)(C)c1cn(C)c2ccc(F)cc12 (stereo partly shown) [Example MM26] |  | 384 |
| CN[C@H](C(=O)N[C@H](C(=O)N(C)[C@H](/C=C(\C)C(=O)N[C@@H](CCCCNC(=O)CCCN1C(=O)CC(SC[C@H](N)C(=O)O)C1=O)C(=O)O)C(C)C)C(C)(C)C)C(C)(C)c1cn(C)c2ccccc12 (stereo partly shown) [Example MM27] |  | > 1000 |
| C/C(=C\[C@H](C(C)C)N(C)C(=O)[C@@H](NC(=O)[C@H]1CCCCN1C(=O)CCN1C(=O)CC(SC[C@H](N)C(=O)O)C1=O)C(C)(C)C)C(=O)N[C@H](CCC(=O)O)C(=O)O (stereo partly shown) [Example MM29] |  | > 1000 |
| CN[C@H](C(=O)N[C@H](C(=O)N(C)[C@H](/C=C(\C)C(=O)N[C@H](CCC(=O)NCCN1C(=O)CC(SC[C@H](N)C(=O)O)C1=O)C(=O)O)C(C)C)C(C)(C)C)C(C)(C)c1cccc(F)c1 (stereo partly shown) [Example MM31] |  | > 1000 |
| CNC(C(=O)N[C@H](C(=O)N(C)[C@H](/C=C(\C)C(=O)N[C@H](CCC(=O)NCCN1C(=O)CC(SC[C@H](N)C(=O)O)C1=O)C(=O)O)C(C)C)C(C)(C)C)C(C)(C)c1ccc(O)cc1 (stereo partly shown) [Example MM33] |  | 36 |
| CN[C@H](C(=O)N[C@H](C(=O)N(C)[C@H](/C=C(\C)C(=O)N[C@H](CCC(=O)NCCN1C(=O)CC(SC[C@H](N)C(=O)O)C1=O)C(=O)O)C(C)C)C(C)(C)C)C(C)(C)c1ccc(C(=O)O)cc1 (stereo partly shown) [Example MM35] |  | > 1000 |
| CN[C@H](C(=O)N[C@H](C(=O)N(C)[C@H](/C=C(\C)C(=O)N[C@H](CCC(=O)NCCN1C(=O)CC(SC[C@H](N)C(=O)O)C1=O)C(=O)O)C(C)C)C(C)(C)C)C(C)(C)c1cccc(OC)c1 (stereo partly shown) [Example MM36] |  | > 1000 |
| CN[C@H](C(=O)N[C@H](C(=O)N(C)[C@H](/C=C(\C)C(=O)N[C@H](CCC(=O)NCCN1C(=O)CC(SC[C@H](N)C(=O)O)C1=O)C(=O)O)C(C)C)C(C)(C)C)C(C)(C)c1cc(C)cc(C)c1 (stereo partly shown) [Example MM37] |  | > 1000 |
| CN[C@H](C(=O)N[C@H](C(=O)N(C)[C@H](/C=C(\C)C(=O)N[C@H](CCC(=O)NCCN1C(=O)CC(SC[C@H](N)C(=O)O)C1=O)C(=O)O)C(C)C)C(C)(C)C)C(C)(C)c1ccc2ccccc2c1 (stereo partly shown) [Example MM38] |  | 726 |
| CN[C@H](C(=O)N[C@H](C(=O)N(C)[C@H](/C=C(\C)C(=O)N[C@H](CCC(=O)NCCN1C(=O)CC(SC[C@H](N)C(=O)O)C1=O)C(=O)O)C(C)C)C(C)(C)C)C(C)(C)c1cccc(-c2ccccc2)c1 (stereo partly shown) [Example MM39] |  | 118 |
| CN[C@H](C(=O)N[C@H](C(=O)N(C)[C@H](/C=C(\C)C(=O)N[C@H](CCC(=O)NCCN1C(=O)CC(SC[C@H](N)C(=O)O)C1=O)C(=O)O)C(C)C)C(C)(C)C)C(C)(C)c1cccc(C)c1 (stereo partly shown) [Example MM40] |  | 146 |
| CNC(C(=O)N[C@H](C(=O)N(C)[C@H](/C=C(\C)C(=O)N[C@H](CCC(=O)O)C(=O)O)C(C)C)C(C)(C)C)C(C)(C)c1ccc(C(=O)NCCN2C(=O)CC(SC[C@H](N)C(=O)O)C2=O)cc1 (stereo partly shown) [Example MM43] |  | > 1000 |
| C/C(=C\[C@H](C(C)C)N(C)C(=O)[C@@H](NC(=O)[C@@H](NC(=O)CCCCCN1C(=O)CC(SC[C@H](N)C(=O)O)C1=O)C(C)(C)c1cn(C)c2ccccc12)C(C)(C)C)C(=O)N[C@H](CCC(=O)O)C(=O)O (stereo partly shown) [Example MM44] |  | > 1000 |
